The values below come from article PMC6491832, “Methylobacterium extorquens RSH Enzyme Synthesizes (p)ppGpp and pppApp in vitro and in vivo, and Leads to Discovery of pppApp Synthesis in Escherichia coli” (Frontiers in Microbiology, 2019).

Usually Km stands for the concentration of substrate that gives half-maximal velocity.

The target in one series is T1, RelSeq1-385 (Streptococcus dysgalactiae, UniProt Q54089).
T1 construct: gene relA; N-terminal catalytic half, residues 1-385; His8-SUMO tag removed by Ulp1; expressed in E. coli BL21(DE3) Rosetta
Format: biochemical. Conditions: 8 mM ATP, 8 mM GTP, 16 mM MgCl2, 50 mM Tris-HCl pH 8.9, 37 °C, control reaction.

Substrate in series [1]: Nc1nc2c(ncn2[C@@H]2O[C@H](COP(=O)(O)OP(=O)(O)OP(=O)(O)O)[C@@H](O)[C@H]2O)c(=O)[nH]1
As to the kind of experiment: purified protein. Format: biochemical, Methylorubrum extorquens. Particulars: 8 mM ATP, GTP 1-8 mM, 8 mM CoCl2, 50 mM Tris-HCl pH 8.9, 37 °C, 2 h, 80 nM enzyme, pyrophosphate acceptor.

Substrate in series [2]: Nc1ncnc2c1ncn2[C@@H]1O[C@H](COP(=O)(O)OP(=O)(O)OP(=O)(O)O)[C@@H](O)[C@H]1O
As to the kind of experiment: purified protein. Format: biochemical, Methylorubrum extorquens. Particulars: 8 mM GTP, ATP 0.25-2 mM, 8 mM CoCl2, 50 mM Tris-HCl pH 8.9, 37 °C, 2 h, 80 nM enzyme, pyrophosphate donor.

Like-named read-outs stand apart in the source and are kept apart here.

T1 sequence (Q54089 1-385): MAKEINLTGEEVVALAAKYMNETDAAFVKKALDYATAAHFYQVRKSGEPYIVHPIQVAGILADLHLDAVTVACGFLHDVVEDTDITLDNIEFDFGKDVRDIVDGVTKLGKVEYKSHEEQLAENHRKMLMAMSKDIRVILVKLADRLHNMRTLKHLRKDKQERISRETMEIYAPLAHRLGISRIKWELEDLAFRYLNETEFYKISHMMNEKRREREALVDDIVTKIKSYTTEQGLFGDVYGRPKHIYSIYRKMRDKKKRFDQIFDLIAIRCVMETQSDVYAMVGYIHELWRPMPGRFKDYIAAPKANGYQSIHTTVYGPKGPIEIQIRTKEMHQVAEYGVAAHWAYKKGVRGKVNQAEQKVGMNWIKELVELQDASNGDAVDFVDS

Consider `Nc1ncnc2c1ncn2[C@@H]1O[C@H](COP(=O)(O)OP(=O)(O)OP(=O)(O)O)[C@@H](O)[C@H]1O` [ATP], for which the “pppGpp synthesis from [33P]gamma-ATP, two-dimensional TLC” value on RelSeq1-385 (pyrophosphate donor) is “ATP + GTP with RelSeq1-385 (to visualize pppGpp)”. As to `Nc1nc2c(ncn2[C@@H]2O[C@H](COP(=O)(O)OP(=O)(O)OP(=O)(O)O)[C@@H](O)[C@H]2O)c(=O)[nH]1` [GTP], the “pppGpp synthesis from [33P]gamma-ATP, two-dimensional TLC” value on RelSeq1-385 (pyrophosphate acceptor) is given as “ATP + GTP with RelSeq1-385 (to visualize pppGpp)”.

B1: RSHMex1-352 (Methylorubrum extorquens AM1) (protein)
chain: MMRQYELVERVKRYNPAANEALLNRAYVYAMRAHGTQKRASGDPFFAHPLEVAAILTDLRLDDATIVAAVLHDTVEDTAATLDEIREIFGPEIGALVDGLTKLKRLDLVSKRAVQGENFRKLLLAVAEDVRVLLVKLADRLHNMRTLHFMRDDKRARIAEETLDIYAPLAGRMGMQELRDELEDLSFRTLKPEVYATITKRLEDLSAKSGSVIESIEHDLTARLAARGIAAHVKGRLKKPFSIWSKMERKSVAFEQLSDIVGFRVIVGTLAECYAALGVVHTSWPMVPGRYKDYVSTPKQNDYRSIHTTVIGPKRQRVELQIRTAEMDEIAEYGIAAHAHYKEAGKEGVEGE
notes: N-terminal catalytic half (hydrolase + synthetase domains, residues 1-352), CTD regulatory domain omitted; His8-SUMO tag removed by Ulp1; expressed in E. coli BL21(DE3) Rosetta
B1: the Km came out at 3000 ± 290 µM in the series “purified protein [1]” and 390 ± 10 µM in “purified protein [2]”.
